Assay results from US20250108036A1, “COMPOSITIONS FOR REMOVING SENESCENT CELLS AND USES THEREOF” (LIFECEUTIX CO., LTD., priority 2021, published 2025).
Read-outs that look alike come from different tables or passages of the source.

Assays:
Assay type in all cases: cell-based, human
[1] = system: foreskin cells in which senescence was induced by doxorubicin; assay: CellTiter-Glo cell viability of doxorubicin-induced senescent foreskin cells (Examples 1-2, 10, 11, 13; Tables 4, 63, 65); settings: for viability at 1.1 µM / viability at 10 µM / viability at 30 µM / viability at […] / viability at 90 µM: Homo sapiens, 72 h, read-out: Survival (%); for viability at 90 µM: 90 μM test compound; for removal of senescent cells: excessive concentrations (1 or 20 mM)
Procedure: After 3 days, cell viability was measured using CellTiter-Glo Luminescent Cell Viability Assay (Promega) or light microscopy.

HMGN1 [2] = assay: HMGN1 ELISA in culture medium of foreskin cells (Examples 10, 11; Tables 62, 63, 64); settings: Homo sapiens; for activity at 30 µM: read-out: HMGN1; for activity at 90 µM: 90 μM test compound
HMGN1 [3] = assay: HMGN1 ELISA in culture medium of A549 cancer cells (Example 12, Table 66); settings: Homo sapiens; for activity at 30 µM: test compound 30 μM
A549 = assay: CellTiter-Glo cell viability of senescent A549 cancer cells (Example 12, Table 67); settings: for viability at 1.1 µM / viability at 10 µM / viability at 30 µM / viability at 90 µM: Homo sapiens; for Survival (%): doxorubicin-induced senescent A549 cancer cells
[4] = 1.1 μM test compound, doxorubicin-induced senescent foreskin cells, CellTiter-Glo, 0 μM = 100
[5] = 10 μM test compound, doxorubicin-induced senescent foreskin cells, CellTiter-Glo, 0 μM = 100
[6] = 30 μM test compound, doxorubicin-induced senescent foreskin cells, CellTiter-Glo, 0 μM = 100
[7] = […] test compound, doxorubicin-induced senescent foreskin cells, CellTiter-Glo, 0 μM = 100
[8] = 30 μM test compound, doxorubicin-treated foreskin cells, DMSO = 100
[9] = A549, doxorubicin-induced senescent A549 cells, test compound 90 μM, ELISA, DMSO = 100, read-out: HMGN1 (amount of HMGN1 secreted in the cell culture)
[10] = A549, doxorubicin-induced senescent A549 cancer cells, 1.1 μM test compound, CellTiter-Glo, read-out: Survival (%)
[11] = A549, doxorubicin-induced senescent A549 cancer cells, 10 μM test compound, CellTiter-Glo, read-out: Survival (%)
[12] = A549, doxorubicin-induced senescent A549 cancer cells, 30 μM test compound, CellTiter-Glo, read-out: Survival (%)
[13] = A549, doxorubicin-induced senescent A549 cancer cells, 90 μM test compound, CellTiter-Glo, read-out: Survival (%)
[14] = A549, doxorubicin-induced senescent A549 cells, ELISA, DMSO = 100, read-out: HMGN1 (amount of HMGN1 secreted in the cell culture)
[15] = doxorubicin-induced senescent foreskin cells, CellTiter-Glo, 0 μM = 100
[16] = doxorubicin-treated foreskin cells, DMSO = 100

| Structure (SMILES) | viability at 1.1 µM [1, 4] [%] | viability at 10 µM [1, 5] [%] | viability at 30 µM [1, 6] [%] | viability at […] [1, 7] [%] | activity at 30 µM (HMGN1 [2]; [8]) [%] | viability at 1.1 µM (A549; [10]) [%] | viability at 10 µM (A549; [11]) [%] | viability at 30 µM (A549; [12]) [%] | activity at 30 µM (HMGN1 [3]; [14]) [%] | other results |
| --- | --- | --- | --- | --- | --- | --- | --- | --- | --- | --- |
| Cn1cc(-c2ccccc2)c(-n2cccc2)n1 [LX-907] | 98.8 | 62.8 | 9.7 | 95.1 | 297 | 90.1 | 78.5 | 53.7 | – | activity at 90 µM (HMGN1 [3]; [9]): 264%; viability at 90 µM (A549; [13]): 5.9% |
| C[C@]12C=C(C#N)C(=O)C3(CC=CC3)C1=CC[C@@H]1[C@@H]2CC[C@]2(C)C(=O)CC[C@@H]12 [LX-2308] | 49.6 | – | – | 5.9 | 329 | 96.6 | 23.5 | – | 287 | – |
| CS(=O)(=O)CCNCc1ccc(-c2ccc3ncnc(Nc4ccc(OCc5cccc(F)c5)c(Cl)c4)c3c2)o1 [LX-1607, Lapatinib, reference compound] | 77 | 54.3 | 32.8 | 68 | 238 | 95.7 | 62.7 | 15.1 | 311 | – |
| C=CC(=O)N1CCC[C@@H](n2nc(-c3ccc(Oc4ccccc4)cc3)c3c(N)ncnc32)C1 [LX-3209, Ibrutinib, reference compound] | 105 | 2 | – | 52.8 | 274 | 95.4 | 55.7 | 2.2 | 199 | – |
| COCC1Cc2c([nH]c3ccccc23)[C@H](c2ccc(C(=O)NC3CC3)cc2F)N1C(=O)CCl (stereo partly shown) [LX-413] | 0.5 | – | – | – | 287 | 10.1 | – | – | 322 | – |
| COc1cc(OC)cc(N(CCNC(C)C)c2ccc3ncc(-c4cnn(C)c4)nc3c2)c1 [LX-1903, Erdafitinib, reference compound] | 73.4 | 22.4 | 11.8 | 50.3 | – | 93.1 | 12.3 | – | – | – |
| Cc1onc(C(=O)N2CCN(C(c3ccc(Cl)cc3)c3ccc(OCc4cn(CCOCCOCCNc5cccc6c5C(=O)N(C5CCC(=O)NC5=O)C6=O)nn4)cc3)CC2)c1[N+](=O)[O-] (stereo not shown) [LX-435, 4-((2-(2-(2-(4-((4-((4-chlorophenyl)(4-(5-methyl-4-nitroisooxazol-3-carbonyl)piperazin-1-yl)methyl)phenoxy)methyl)-1H-1,2,3-triazol-1-yl)ethoxy)ethoxy)ethyl)amino)-2-(2,6-dioxopiperidin-3-yl)isoindolin-1,3-dione] | – | – | – | – | – | – | – | – | – | Survival (%) [1, 4]: 89.1%; Survival (%) [1, 7]: 5.9%; Survival (%) (A549; 1.1 μM test compound, CellTiter-Glo): 92.1% |
| CC1(C)CC[C@]2(C(=O)O)CC[C@]3(C)C(=CC[C@@H]4[C@@]5(C)CC[C@H](O)C(C)(C)[C@@H]5CC[C@]43C)[C@@H]2C1 [LX-2003, Oleanolic acid] | 89.6 | 34.6 | 14 | 65.8 | 298 | 97.5 | 90.6 | 52.7 | – | activity at 90 µM (HMGN1 [3]; [9]): 218%; viability at 90 µM (A549; [13]): 18.3% |
| COC(=O)[C@]12CCC(C)(C)C[C@H]1[C@H]1C(=O)C=C3[C@@]4(C)C=C(C#N)C(=O)C(C)(C)[C@@H]4CC[C@@]3(C)[C@]1(C)CC2 [LX-2102, Bardoxolone methyl, reference compound] | 9.4 | – | – | – | 288 | 88.4 | – | – | 233 | – |
| CN(C)c1nc(N(C)C)nc(N(C)C)n1 [LX-501, Altretamine, reference compound] | 103 | 98.9 | 85.2 | 105 | – | 99.8 | 103 | 99.5 | – | viability at 90 µM [1, 15]: 53.7%; activity at 90 µM (HMGN1 [2]; [16]): 168%; activity at 90 µM (HMGN1 [3]; [9]): 233%; viability at 90 µM (A549; [13]): 13.1% |
| CC(O)[C@]1(C)C(=O)C(C#N)=C[C@]2(C)C3=CC(=O)[C@]45OC(=O)[C@@]6(CCC(C)(C)C[C@H]64)CC[C@@]5(C)[C@]3(C)CC[C@@H]12 (stereo partly shown) [LX-2501] | 11.1 | – | – | – | 309 | 14.4 | – | – | 333 | – |
| CCn1c(C#CCNc2ccccc2)cc2cc(CNC)ccc21 [LX-905] | 97.6 | 42.5 | 6.9 | 91.6 | 318 | 101 | 83.1 | 79.5 | – | activity at 90 µM (HMGN1 [3]; [9]): 217%; viability at 90 µM (A549; [13]): 22.7% |
| C[C@@H]1CC[C@H]2[C@@H](C)C(=O)O[C@@H]3O[C@@]4(C)CC[C@@H]1[C@]32OO4 [LX-506, Artemisinin, reference compound] | 101 | 91 | 78 | 97.2 | – | 109 | 93.8 | 91.4 | – | viability at 90 µM [1, 15]: 33.2%; activity at 90 µM (HMGN1 [2]; [16]): 169%; activity at 90 µM (HMGN1 [3]; [9]): 169%; viability at 90 µM (A549; [13]): 44.2% |
| C=CC(=O)Nc1cccc(Oc2nc(Nc3ccc(N4CCN(C)CC4)cc3)nc3ccoc23)c1 [LX-2902, Poseltinib, reference compound] | 1.9 | – | – | – | 297 | 95.7 | 72.4 | 31.2 | 271 | – |
| COc1nc(-c2cccnc2)nc2c1CC[C@H]1[C@H](C)C(=O)C(C#N)=C[C@]21C [LX-2315] | 75.2 | – | – | 2.9 | 235 | 98.2 | 39.2 | – | 247 | – |
| CC(=O)N[C@@H](CS)C(=O)O [NAC, N-acetyl cysteine, reference compound] | – | – | – | – | – | – | – | – | – | removal of senescent cells [1]: hardly removed |
| C[C@H]1[C@H](SCc2ccccc2)O[C@@H]2O[C@@]3(C)CC[C@H]4[C@H](C)CC[C@@H]1[C@@]24OO3 [LX-505] | 35.2 | – | – | 0.4 | 299 | 51.1 | – | – | 317 | – |
| CCNC(=O)c1c(O)c(I)c(-n2cccc2)c2sc(N(CC)CC)nc12 [LX-912] | 104 | 32.7 | 3.1 | 85.2 | 317 | 92.4 | 83.9 | 32.4 | – | activity at 90 µM (HMGN1 [3]; [9]): 244%; viability at 90 µM (A549; [13]): 6.7% |
| Cc1oncc1C(=O)Nc1ccc(C(F)(F)F)cc1 [LX-1603, Leflunomide, reference compound] | 101 | 91.1 | 84.3 | 95.6 | – | 99.6 | 95.7 | 96.5 | – | viability at 90 µM [1, 15]: 48.3%; activity at 90 µM (HMGN1 [2]; [16]): 168%; activity at 90 µM (HMGN1 [3]; [9]): 163%; viability at 90 µM (A549; [13]): 49.8% |
| CO[C@]1(C(=O)N[C@@H](C)c2ccc(-n3cc(F)cn3)nc2)CC[C@H](c2nc(C)cc(Nc3cc(C)[nH]n3)n2)CC1 [LX-1902, Pralsetinib, reference compound] | 59 | 11.9 | 3.9 | 39.6 | 303 | 66.2 | 4.2 | – | 271 | – |
| CN(C)CCn1cc(-c2ccc(F)cc2)c(-n2cccc2)n1 [LX-913] | 97.7 | 65 | – | 84.4 | – | 95.1 | 82.6 | – | – | Survival (%) [1, 6]: 14.5%; Survival (%) (A549; 30 μM test compound, CellTiter-Glo): 45.7%; Survival (%) (A549; 90 μM test compound, CellTiter-Glo): 1.9% |
| CCCC\C=C/C=C/C=C\CCCCCCCC(=O)O [LX-2707, Punicic acid] | – | – | – | – | – | – | – | – | – | viability at 1.1 µM [1]: 95.1%; viability at 10 µM [1]: 64.8%; viability at 30 µM [1]: 29%; viability at 1.1 µM (A549; A549, read-out: Survival (%)): 95.1%; viability at 10 µM (A549; A549, read-out: Survival (%)): 64.8%; viability at 30 µM (A549; A549, read-out: Survival (%)): 29% |
| C=C(CN(C)C)C(=O)c1ccc2c(c1)OCO2 [LX-919] | – | – | – | – | – | – | – | – | – | activity at 30 µM (HMGN1 [2]): 321%; activity at 90 µM (HMGN1 [3]; A549, read-out: HMGN1 (amount of HMGN1 secreted in the cell culture)): 215% |
| OO [H2O2, reference compound] | – | – | – | – | – | – | – | – | – | removal of senescent cells [1]: hardly removed |
